Measured values: PMC6372667 (Experimental & Molecular Medicine, 2019)
Like-named read-outs stand apart in the source and are kept apart here.

What was measured:
[1] = system: SH-SY5Y human neuroblastoma; assay: MTT cytotoxicity assay, SH-SY5Y; format: cell-based; settings: 24 h
Experimental: (§1) Cytotoxicity was assessed using the MTT assay. Briefly, the cells were seeded into a 96-well plate at a density of 1×10^5 cells per well in 100 µL of corresponding media and incubated at 37 °C in an incubator under 5% CO2 tension for 24 h. The culture media were then replaced with 100 µL of fresh serum-free media in the presence of varied concentrations of pterosin derivatives, and cells were incubated for an additional 24 h. The control was treated with an equal amount of DMSO present in the assay for a 5 mM concentration. Then, 100 µL of MTT solution (0.5 mg/mL in Phosphate Buffered Saline (PBS)) was added to each culture. To measure the proportion of surviving cells, the media were replaced with 100 µL of DMSO 2 h after the administration of MTT solution. The absorbance was measured at 570 nm using a spectrophotometric plate reader (Molecular Devices, Sunnyvale, CA, USA).

[2] = target: T1, Electric eel AChE (Electrophorus electricus, UniProt O42275); assay: Kinetic analysis of AChE inhibition (Dixon and Lineweaver−Burk plots); format: biochemical; settings: for Inhibition type AChE: Dixon and Lineweaver−Burk plots
T1 construct: purchased Sigma-Aldrich Co
T1 sequence (O42275 24-633): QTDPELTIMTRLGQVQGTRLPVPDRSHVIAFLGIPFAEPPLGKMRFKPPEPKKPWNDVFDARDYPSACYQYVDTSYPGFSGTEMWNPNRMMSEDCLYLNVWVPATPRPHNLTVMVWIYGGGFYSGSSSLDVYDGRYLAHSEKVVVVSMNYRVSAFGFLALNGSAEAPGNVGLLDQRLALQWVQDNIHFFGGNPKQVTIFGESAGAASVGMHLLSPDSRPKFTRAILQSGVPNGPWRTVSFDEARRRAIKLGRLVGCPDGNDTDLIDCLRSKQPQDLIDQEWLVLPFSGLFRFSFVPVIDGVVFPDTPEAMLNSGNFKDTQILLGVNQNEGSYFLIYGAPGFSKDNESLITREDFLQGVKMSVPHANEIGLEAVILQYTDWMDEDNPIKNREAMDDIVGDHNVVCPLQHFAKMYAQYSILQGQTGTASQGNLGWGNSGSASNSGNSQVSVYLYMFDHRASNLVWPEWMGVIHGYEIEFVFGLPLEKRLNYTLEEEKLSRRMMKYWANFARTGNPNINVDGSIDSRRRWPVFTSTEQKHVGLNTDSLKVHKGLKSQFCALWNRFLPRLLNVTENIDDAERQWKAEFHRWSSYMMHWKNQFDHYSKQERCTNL
Experimental: The Ki was determined by interpretation of the Dixon plot, with the value of the x-axis intercept taken as −Ki.
Dixon plots for AChE inhibition by pterosin derivatives. (2S,3R)-Pterosin C (A), (2R,3R)-pterosin C (B), and (2R)-pterosin B (C) were tested in the presence of substrate concentrations of 0.1 mM (●), 0.3 mM (○), and 0.6 mM (▼). Lineweaver-Burk plots for AChE inhibition were generated with inhibitor concentrations of 0 µM (Δ), 4 µM (▼), 20 µM (○), and 100 µM (●) for (2S,3R)-pterosin C (D) and (2R,3R)-pterosin C (E); and 0 µM (Δ), 2 µM (▼), 10 µM (○), and 50 µM (●) for (2R)-pterosin B (F).
Dixon plots for AChE inhibition by pteroside derivatives. (2R)-pteroside B (A), (2R,3R)-pteroside C (B), and (3S)-pteroside D (C) were tested in the presence of substrate concentrations of 0.1 mM (●), 0.3 mM (○), and 0.6 mM (▼). Lineweaver-Burk plots for AChE inhibition were generated with inhibitor concentrations of 0 µM (Δ), 0.8 µM (▼), 4 µM (○), and 20 µM (●) for (2R)-pteroside B (D), (2R,3R)-pteroside C (E), and (3S)-pteroside D (F).

[3] = system: Mouse neuroblastoma N2a cells stably overexpressing the human APP Swedish mutation (APPswe); assay: Aβ40/Aβ42 sandwich ELISA of conditioned media of APPswe neuroblastoma cells; format: cell-based
Experimental: Mouse neuroblastoma N2a cells stably overexpressing the human APP Swedish mutation (APPswe) were kindly provided by Dr. Takeshi Iwatsubo (The University of Tokyo). […] To analyze the effect of (2R)-pterosin B or (2R,3R)-pteroside C on APP metabolites, APPswe-containing neuroblastoma cells were cultured up to confluency in DMEM that contained 10 mM butyric acid to drive protein expression in the presence of 12, 60, 250, and 500 μM of (2R)-pterosin B or (2R,3R)-pteroside C for 24 h. β-SI (10 µM) was used as a positive control. The negative control included cells cultured in the absence of test compounds. […] Conditioned medium was collected in 0.5 mM phenylmethylsulfonyl fluoride and subjected to ELISA for the 40-residue peptide Aβ (1–40) (Aβ40) or the 42-residue Aβ (1–42) (Aβ42).
Aβ40 and Aβ42 ELISA was performed according to the manufacturer’s instructions. The assay was conducted in a microplate coated with anti-human Aβ35-40 mouse IgG (1A10) or anti-human Aβ38-42 mouse IgG (44A3), respectively. The microplate was added with 100 μL conditioned media, incubated overnight at 4 °C, and then washed with washing buffer. Horseradish peroxidase-conjugated anti-human Aβ11-28 mouse IgG (82E1) was added into each well, incubated at 4 °C for 1 h, and washed with washing buffer. 3,3′,5,5′-Tetramethylbenzidine as a chromogenic substrate was added to each well and incubated for 30 min. The reaction was stopped by the addition of 100 μL stop solution, and the absorbance at 450 nm was measured using a model 680 microplate reader (Bio-Rad, Hercules, CA).

[4] = system: SH-SY5Y, C6, NIH3T3 and B16F10 cell lines; assay: MTT cytotoxicity assay, all cell lines tested; format: cell-based
Experimental: as §1

Row | SMILES | LD50 Based on MTT Assay, SY-SY5Y [1] | Ki [2] | Inhibition type AChE [2] | Secretion of Aβ peptides, effect ([3]; 500 μM) | Secreted Aβ40 peptides, effect ([3]; 500 µM, 24 h) | Reduction of Aβ40 peptide secreted into media ([3]; 500 μM, 24 h, P < 0.01) | LD50, cell lines tested [4] | Ki ([2]; determined by Dixon plot, read-out: Ki AChE) | Secreted Aβ42 peptide, effect ([3]; 500 µM, 24 h, P < 0.05)
1 | Cc1cc2c(c(C)c1CCO)C(=O)[C@H](C)C2 [(2R)-Pterosin B, (2R)-pterosin B] | >5,000 µM | 12.1 µM | Mixed-type | significantly decreased | significantly decreased | up to 50% | above 5 mM | – | –
2 | Cc1cc2c(c(C)c1CCOC1OC(CO)C(O)C(O)C1O)C(=O)C(C)C2O [(2R,3R)-Pteroside C, (2R,3R)-pteroside C] | >5,000 µM | – | Mixed-type | significantly decreased | – | – | above 5 mM | 8.13 µM | significantly decreased
